# Test results reported in US20160067674A1, “LIGANDS AND METHODS FOR ISOLATING OR REMOVING PROTEINS” (PreviPharma AG, priority 2014, published 2016).
# Starred links: 1 amine or outer side, 2 acyl side, 3 side chain; linkers in the order of their positions; H or OH if unused. No end group written: not given here. *: point of attachment. code X = linker with the sequence GSGSGSG, O=C(CNC(=O)[C@H](CO)NC(=O)CN[*:1])N[C@@H](CO)C(=O)NCC(=O)N[C@@H](CO)C(=O)NCC(=O)[*:2]; Biotin = O=C1N[C@H]2[C@H](CS[C@H]2CCCCC(=O)*)N1
# How the values were obtained:
# [1] = test system: factor V or factor VIII; assay: Peptide array of Protein C sequence, binding affinity towards factor V or factor VIII; settings: compared with sequences i) to iii)
# Excerpt: (§1) In this manner, the sequences of Protein A, Protein G, Protein H and FcRn were investigated for peptides binding to IgG. In addition, the sequence of Protein C was investigated for peptides binding to factor V and factor VIII.
# [2] = molecular target: factor V (Homo sapiens, UniProt P12259); assay: Peptide array of Protein C sequence for peptides binding to factor V
# Excerpt: as §1
# [3] = molecular target: factor VIII (Homo sapiens, UniProt P00451); assay: Peptide array of Protein C sequence for peptides binding to factor VIII
# Excerpt: as §1
# [4] = test system: IgG; assay: IgG binding to and release from peptide-modified streptavidin latex particles, bound and eluted IgG analysed by ELISA
# factor VIII, sequence (P00451 20-2351, species assumed): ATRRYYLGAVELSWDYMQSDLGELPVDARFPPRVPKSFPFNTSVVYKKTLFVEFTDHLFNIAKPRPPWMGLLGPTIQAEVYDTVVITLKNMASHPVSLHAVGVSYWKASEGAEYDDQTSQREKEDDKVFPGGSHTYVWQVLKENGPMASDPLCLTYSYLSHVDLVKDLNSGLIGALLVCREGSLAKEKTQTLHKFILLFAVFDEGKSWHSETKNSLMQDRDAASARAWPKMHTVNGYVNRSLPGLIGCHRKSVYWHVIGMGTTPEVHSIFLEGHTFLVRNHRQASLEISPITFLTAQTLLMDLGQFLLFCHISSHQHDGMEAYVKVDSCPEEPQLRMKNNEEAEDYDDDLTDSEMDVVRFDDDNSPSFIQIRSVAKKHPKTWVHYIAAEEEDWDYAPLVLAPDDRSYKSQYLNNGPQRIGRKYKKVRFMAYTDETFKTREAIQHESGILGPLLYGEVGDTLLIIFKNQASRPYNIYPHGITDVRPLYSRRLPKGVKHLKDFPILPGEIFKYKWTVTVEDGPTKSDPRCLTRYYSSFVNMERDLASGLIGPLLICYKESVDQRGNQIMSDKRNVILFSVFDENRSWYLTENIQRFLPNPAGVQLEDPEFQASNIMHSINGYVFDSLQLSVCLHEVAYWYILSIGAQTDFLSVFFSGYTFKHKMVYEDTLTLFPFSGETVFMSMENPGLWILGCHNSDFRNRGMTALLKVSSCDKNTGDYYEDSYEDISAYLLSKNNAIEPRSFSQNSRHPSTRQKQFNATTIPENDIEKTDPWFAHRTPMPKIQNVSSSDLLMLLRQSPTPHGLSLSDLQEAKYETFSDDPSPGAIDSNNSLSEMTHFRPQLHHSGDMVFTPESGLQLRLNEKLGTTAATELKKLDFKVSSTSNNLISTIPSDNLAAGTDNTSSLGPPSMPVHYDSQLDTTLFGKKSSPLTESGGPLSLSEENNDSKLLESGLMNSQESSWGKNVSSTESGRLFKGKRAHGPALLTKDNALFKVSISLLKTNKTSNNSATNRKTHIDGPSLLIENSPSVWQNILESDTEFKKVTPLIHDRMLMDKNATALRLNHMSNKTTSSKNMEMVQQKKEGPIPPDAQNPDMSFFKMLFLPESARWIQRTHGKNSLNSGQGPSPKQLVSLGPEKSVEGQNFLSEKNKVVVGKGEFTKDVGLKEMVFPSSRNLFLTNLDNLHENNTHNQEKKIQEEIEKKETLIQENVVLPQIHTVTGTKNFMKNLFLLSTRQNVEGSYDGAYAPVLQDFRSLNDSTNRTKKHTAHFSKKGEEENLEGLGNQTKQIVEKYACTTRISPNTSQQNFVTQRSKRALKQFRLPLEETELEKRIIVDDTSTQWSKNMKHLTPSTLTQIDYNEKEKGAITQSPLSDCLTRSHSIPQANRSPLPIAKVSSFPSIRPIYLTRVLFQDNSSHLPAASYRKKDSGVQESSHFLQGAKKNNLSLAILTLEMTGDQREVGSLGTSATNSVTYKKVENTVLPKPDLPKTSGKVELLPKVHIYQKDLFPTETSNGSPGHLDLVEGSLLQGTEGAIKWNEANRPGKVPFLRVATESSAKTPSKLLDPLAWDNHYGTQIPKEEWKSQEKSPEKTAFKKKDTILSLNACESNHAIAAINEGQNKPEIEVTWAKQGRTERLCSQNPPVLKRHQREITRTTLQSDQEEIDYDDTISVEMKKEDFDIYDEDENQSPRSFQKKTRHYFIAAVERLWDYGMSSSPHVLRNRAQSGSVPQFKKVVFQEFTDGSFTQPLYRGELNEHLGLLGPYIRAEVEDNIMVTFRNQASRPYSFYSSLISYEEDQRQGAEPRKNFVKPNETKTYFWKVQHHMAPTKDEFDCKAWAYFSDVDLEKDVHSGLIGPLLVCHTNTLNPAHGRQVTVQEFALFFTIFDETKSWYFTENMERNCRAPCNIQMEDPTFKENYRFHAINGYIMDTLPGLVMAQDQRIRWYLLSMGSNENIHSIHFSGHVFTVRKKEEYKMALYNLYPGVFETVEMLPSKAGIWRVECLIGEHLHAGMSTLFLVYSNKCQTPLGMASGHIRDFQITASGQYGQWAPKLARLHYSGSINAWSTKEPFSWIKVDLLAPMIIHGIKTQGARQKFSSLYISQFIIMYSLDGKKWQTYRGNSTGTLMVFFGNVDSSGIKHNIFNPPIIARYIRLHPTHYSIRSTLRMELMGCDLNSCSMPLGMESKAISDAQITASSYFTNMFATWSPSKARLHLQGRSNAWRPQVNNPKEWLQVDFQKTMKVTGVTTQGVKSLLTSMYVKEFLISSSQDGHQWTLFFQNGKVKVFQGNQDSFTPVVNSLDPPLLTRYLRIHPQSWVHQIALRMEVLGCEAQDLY
# factor V, sequence (P12259 29-2224): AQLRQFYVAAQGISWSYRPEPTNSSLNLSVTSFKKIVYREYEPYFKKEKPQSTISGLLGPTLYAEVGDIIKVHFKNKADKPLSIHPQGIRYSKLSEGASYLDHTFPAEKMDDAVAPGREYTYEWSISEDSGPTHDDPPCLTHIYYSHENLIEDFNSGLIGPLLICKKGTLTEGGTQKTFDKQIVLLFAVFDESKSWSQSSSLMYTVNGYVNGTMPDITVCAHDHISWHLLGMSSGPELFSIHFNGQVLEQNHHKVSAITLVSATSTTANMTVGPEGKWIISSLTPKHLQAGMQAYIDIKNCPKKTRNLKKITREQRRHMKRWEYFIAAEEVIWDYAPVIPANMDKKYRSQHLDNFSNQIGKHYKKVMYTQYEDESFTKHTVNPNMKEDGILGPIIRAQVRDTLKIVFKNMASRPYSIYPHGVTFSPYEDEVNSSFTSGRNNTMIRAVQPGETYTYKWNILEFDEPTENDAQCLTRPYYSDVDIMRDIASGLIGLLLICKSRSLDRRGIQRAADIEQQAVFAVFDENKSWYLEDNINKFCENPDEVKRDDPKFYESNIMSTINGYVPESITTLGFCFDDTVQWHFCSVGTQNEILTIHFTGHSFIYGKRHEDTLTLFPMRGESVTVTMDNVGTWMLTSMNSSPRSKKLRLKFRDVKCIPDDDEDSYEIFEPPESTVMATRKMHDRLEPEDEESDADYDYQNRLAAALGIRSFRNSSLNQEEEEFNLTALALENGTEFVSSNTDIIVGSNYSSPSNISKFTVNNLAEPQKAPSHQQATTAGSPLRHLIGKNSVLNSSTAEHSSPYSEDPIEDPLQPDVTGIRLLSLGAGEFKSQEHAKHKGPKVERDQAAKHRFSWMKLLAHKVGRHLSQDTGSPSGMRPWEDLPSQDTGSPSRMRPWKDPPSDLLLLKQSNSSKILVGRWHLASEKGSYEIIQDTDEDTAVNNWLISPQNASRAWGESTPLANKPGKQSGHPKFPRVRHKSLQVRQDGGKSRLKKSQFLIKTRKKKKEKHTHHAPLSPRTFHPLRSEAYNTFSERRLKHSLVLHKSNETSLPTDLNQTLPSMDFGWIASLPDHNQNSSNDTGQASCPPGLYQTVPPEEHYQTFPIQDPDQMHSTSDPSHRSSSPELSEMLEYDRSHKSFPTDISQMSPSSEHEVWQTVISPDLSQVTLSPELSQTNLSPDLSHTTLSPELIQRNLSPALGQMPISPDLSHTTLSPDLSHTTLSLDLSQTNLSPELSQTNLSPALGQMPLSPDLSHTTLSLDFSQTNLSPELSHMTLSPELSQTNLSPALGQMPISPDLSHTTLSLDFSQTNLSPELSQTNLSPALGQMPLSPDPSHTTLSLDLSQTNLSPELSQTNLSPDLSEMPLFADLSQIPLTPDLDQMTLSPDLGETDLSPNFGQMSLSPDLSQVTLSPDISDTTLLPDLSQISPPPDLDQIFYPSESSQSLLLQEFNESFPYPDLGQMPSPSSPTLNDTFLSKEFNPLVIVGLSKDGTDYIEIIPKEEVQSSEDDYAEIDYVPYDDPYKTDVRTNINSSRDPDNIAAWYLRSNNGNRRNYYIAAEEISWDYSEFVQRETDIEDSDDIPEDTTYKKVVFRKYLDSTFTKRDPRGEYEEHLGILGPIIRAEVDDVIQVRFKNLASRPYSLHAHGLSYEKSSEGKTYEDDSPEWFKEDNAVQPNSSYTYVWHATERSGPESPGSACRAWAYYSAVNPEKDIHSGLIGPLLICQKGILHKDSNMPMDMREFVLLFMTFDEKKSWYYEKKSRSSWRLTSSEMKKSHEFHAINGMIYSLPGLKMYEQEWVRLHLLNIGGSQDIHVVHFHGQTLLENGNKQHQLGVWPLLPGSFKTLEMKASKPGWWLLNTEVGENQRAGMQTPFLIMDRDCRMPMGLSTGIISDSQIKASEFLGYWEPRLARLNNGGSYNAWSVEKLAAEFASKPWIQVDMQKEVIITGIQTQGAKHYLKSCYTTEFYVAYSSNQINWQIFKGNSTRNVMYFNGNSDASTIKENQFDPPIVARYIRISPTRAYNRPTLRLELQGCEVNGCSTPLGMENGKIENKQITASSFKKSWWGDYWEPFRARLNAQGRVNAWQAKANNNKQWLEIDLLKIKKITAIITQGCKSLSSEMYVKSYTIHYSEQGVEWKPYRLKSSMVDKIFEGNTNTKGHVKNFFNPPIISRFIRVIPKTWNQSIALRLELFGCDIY
Substance,binding affinity towards factor V or factor VIII [1],binding to factor V [2],binding to factor VIII [3],other results
FVHPNYSKSTTDNDIALLH [iv)],weaker,,,
HNYGVYTKVSRYL,,,not significantly binding,
TGWGYHSSREKEA [v)],weaker,,,
"bio-X-QQQLITIKQISEASRKSLSRD ({Biotin-code X}-QQQLITIKQISEASRKSLSRD) [Peptide 2, biotin-labelled peptide; bio = biotin, X = linker GSGSGSG]",,,,"IgG bound ([4]; 10 mg peptide-modified latex, 400 μl of 0.22 mg/ml IgG, 1 h room temperature): 55 µg; IgG Elution ([4]; 400 μl 25 mM acetate buffer pH 3.0, 1 h room temperature): 52 µg; Recovery [IgG] ([4]; eluted relative to bound IgG): 95%"

# More lines, main results first:
binding affinity towards factor V or factor VIII [1],binding to factor V [2],binding to factor VIII [3],Substance,other results
,not significantly bind,,GDSGGPMVASFHG,selectivity for factor VIII ([3]; versus factor V): high selectivity
,binds equally strong,binds equally strong,LEGYDLRRWEKWE,
